Reference: article PMC5218480 (PLoS ONE, 2017)

Tested on: MV-4-11 cells
Test: Gene expression microarray analysis (Affymetrix PrimeView) and GSEA
Format: cell-based, human
Set-up: RFU PODN (11730768_x_at) / Fold change /veh PODN (11730768_x_at) / RFU LINC00158 (11744669_a_at) / Fold change /veh LINC00158 (11744669_a_at) / RFU DUSP10 (11751237_a_at) / Fold change /veh DUSP10 (11751237_a_at) / RFU ID3 (11757404_x_at) / Fold change /veh ID3 (11757404_x_at) / RFU PLEKHG5 (11737974_s_at) / Fold change /veh PLEKHG5 (11737974_s_at) / RFU LRRC4B (11730491_at) / Fold change /veh LRRC4B (11730491_at) / RFU GIMAP4 (11747438_a_at) / Fold change /veh GIMAP4 (11747438_a_at) / RFU KRT8 (11758183_x_at) / Fold change /veh KRT8 (11758183_x_at) / RFU CNN1 (11734310_a_at) / Fold change /veh CNN1 (11734310_a_at) / RFU VPS37D (11726825_at) / Fold change /veh VPS37D (11726825_at) / RFU C10orf10 (11716522_x_at) / Fold change /veh C10orf10 (11716522_x_at) / RFU KIR2DL2 /// KIR2DL4 /// KIR2DL5A /// KIR2DL5B /// KIR2DS1 /// KIR2DS2 /// KIR2DS3 /// KIR2DS4 /// KIR3DL3 /// KIR3DL3 /// KIR3DS1 (11738374_at) / Fold change /veh KIR2DL2 /// KIR2DL4 /// KIR2DL5A /// KIR2DL5B /// KIR2DS1 /// KIR2DS2 /// KIR2DS3 /// KIR2DS4 /// KIR3DL3 /// KIR3DL3 /// KIR3DS1 (11738374_at) / RFU C1QL1 (11718748_at) / Fold change /veh C1QL1 (11718748_at) / RFU TMPRSS4 (11747572_a_at) / Fold change /veh TMPRSS4 (11747572_a_at) / RFU HAMP (11756126_x_at) / Fold change /veh HAMP (11756126_x_at) / RFU RNFT2 (11725882_a_at) / Fold change /veh RNFT2 (11725882_a_at) / RFU NR4A2 (11747474_a_at) / Fold change /veh NR4A2 (11747474_a_at) / RFU ABCC12 (11746883_a_at) / Fold change /veh ABCC12 (11746883_a_at) / RFU TMEM136 (11760407_x_at) / Fold change /veh TMEM136 (11760407_x_at) / RFU CLDN22 /// WWC2 (11732394_at) / Fold change /veh CLDN22 /// WWC2 (11732394_at) / RFU HLA-DPB1 (11760878_x_at) / Fold change /veh HLA-DPB1 (11760878_x_at) / RFU SPINT1 (11716480_a_at) / Fold change /veh SPINT1 (11716480_a_at) / RFU GAP43 (11754022_s_at) / Fold change /veh GAP43 (11754022_s_at) / RFU A4GNT (11735810_at) / Fold change /veh A4GNT (11735810_at) / RFU PRB3 (11715151_x_at) / Fold change /veh PRB3 (11715151_x_at) / RFU TUBB4B (11761932_at) / Fold change /veh TUBB4B (11761932_at) / RFU CAPN14 (11732068_a_at) / Fold change /veh CAPN14 (11732068_a_at) / RFU TMCC2 (11721928_a_at) / Fold change /veh TMCC2 (11721928_a_at) / RFU IRGQ (11745062_a_at) / Fold change /veh IRGQ (11745062_a_at) / RFU FAM174B (11720279_a_at) / Fold change /veh FAM174B (11720279_a_at) / RFU TMPRSS4 (11748680_a_at) / Fold change /veh TMPRSS4 (11748680_a_at) / RFU FAM212B (11763350_a_at) / Fold change /veh FAM212B (11763350_a_at) / RFU PLEKHG5 (11743358_a_at) / Fold change /veh PLEKHG5 (11743358_a_at) / RFU ZSCAN30 (11745921_a_at) / Fold change /veh ZSCAN30 (11745921_a_at) / RFU CMKLR1 (11741424_a_at) / Fold change /veh CMKLR1 (11741424_a_at) / RFU LOC101060620 /// MAPK8IP1 (11723275_at) / Fold change /veh LOC101060620 /// MAPK8IP1 (11723275_at) / RFU SPTSSB (11747773_x_at) / Fold change /veh SPTSSB (11747773_x_at) / RFU PRSS12 (11739890_at) / Fold change /veh PRSS12 (11739890_at) / RFU BIN1 (11741810_x_at) / Fold change /veh BIN1 (11741810_x_at) / RFU WNT11 (11732464_a_at) / Fold change /veh WNT11 (11732464_a_at) / RFU C10orf10 (11716521_a_at) / Fold change /veh C10orf10 (11716521_a_at) / RFU C5orf56 (11738089_at) / Fold change /veh C5orf56 (11738089_at) / RFU CYB561 (11721691_x_at) / Fold change /veh CYB561 (11721691_x_at) / RFU ANKRD19P (11752326_a_at) / Fold change /veh ANKRD19P (11752326_a_at) / RFU OR2T12 /// OR2T33 /// OR2T8 (11738714_s_at) / Fold change /veh OR2T12 /// OR2T33 /// OR2T8 (11738714_s_at) / RFU VCAN (11748164_a_at) / Fold change /veh VCAN (11748164_a_at) / RFU JSRP1 (11732532_at) / Fold change /veh JSRP1 (11732532_at) / RFU KRTAP10-11 (11738290_x_at) / Fold change /veh KRTAP10-11 (11738290_x_at) / RFU MYO3A (11730013_a_at) / Fold change /veh MYO3A (11730013_a_at) / RFU EBF3 (11725865_a_at) / Fold change /veh EBF3 (11725865_a_at) / RFU CAMK2N1 (11719241_x_at) / Fold change /veh CAMK2N1 (11719241_x_at) / RFU C5orf56 (11738088_a_at) / Fold change /veh C5orf56 (11738088_a_at) / RFU OLFML3 (11715873_a_at) / Fold change /veh OLFML3 (11715873_a_at) / RFU LOC100653217 /// NTM (11731650_a_at) / Fold change /veh LOC100653217 /// NTM (11731650_a_at) / RFU MAPK11 (11762145_a_at) / Fold change /veh MAPK11 (11762145_a_at) / RFU FIZ1 (11724087_x_at) / Fold change /veh FIZ1 (11724087_x_at) / RFU OASL (11726364_x_at) / Fold change /veh OASL (11726364_x_at) / RFU SOX15 (11748057_x_at) / Fold change /veh SOX15 (11748057_x_at) / RFU CD79A (11719716_a_at) / Fold change /veh CD79A (11719716_a_at) / RFU HIST1H1D (11736915_at) / Fold change /veh HIST1H1D (11736915_at) / RFU CASKIN2 (11723855_a_at) / Fold change /veh CASKIN2 (11723855_a_at) / RFU LOC730098 (11760151_x_at) / Fold change /veh LOC730098 (11760151_x_at) / RFU OR4N2 (11742367_at) / Fold change /veh OR4N2 (11742367_at) / RFU PRRT2 (11749266_a_at) / Fold change /veh PRRT2 (11749266_a_at) / RFU SNX32 (11753110_a_at) / Fold change /veh SNX32 (11753110_a_at) / RFU CDHR5 (11726645_a_at) / Fold change /veh CDHR5 (11726645_a_at) / RFU RCAN1 (11760418_a_at) / Fold change /veh RCAN1 (11760418_a_at) / RFU FAM167A (11723789_a_at) / Fold change /veh FAM167A (11723789_a_at) / RFU FAM26E (11764081_at) / Fold change /veh FAM26E (11764081_at) / RFU ISYNA1 (11749810_s_at) / Fold change /veh ISYNA1 (11749810_s_at) / RFU ACY1 (11761880_at) / Fold change /veh ACY1 (11761880_at) / RFU 11764098_at / Fold change /veh 11764098_at / RFU SAMD14 (11745864_x_at) / Fold change /veh SAMD14 (11745864_x_at) / RFU NPB (11741838_a_at) / Fold change /veh NPB (11741838_a_at) / RFU TMPRSS6 (11731388_a_at) / Fold change /veh TMPRSS6 (11731388_a_at) / RFU KRTAP10-2 (11738614_at) / Fold change /veh KRTAP10-2 (11738614_at) / RFU ARHGAP8 /// PRR5-ARHGAP8 (11727945_x_at) / Fold change /veh ARHGAP8 /// PRR5-ARHGAP8 (11727945_x_at) / RFU KRTAP5-7 /// NADSYN1 (11734609_at) / Fold change /veh KRTAP5-7 /// NADSYN1 (11734609_at) / RFU RASL12 (11751679_a_at) / Fold change /veh RASL12 (11751679_a_at) / RFU CDKN2B (11736163_a_at) / Fold change /veh CDKN2B (11736163_a_at) / RFU PRF1 (11729649_at) / Fold change /veh PRF1 (11729649_at) / RFU, ZNF638 /// ZNF638-IT1 / Fold change vs veh, ZNF638 /// ZNF638-IT1 / RFU, PANK3 / Fold change vs veh, PANK3 / RFU, SH3YL1 / Fold change vs veh, SH3YL1 / RFU, ZEB2 / Fold change vs veh, ZEB2 / RFU, NRIP1 / Fold change vs veh, NRIP1 / RFU, PTTG1IP / Fold change vs veh, PTTG1IP / RFU, CAPN2 / Fold change vs veh, CAPN2 / RFU, MED14 / Fold change vs veh, MED14 / RFU, SNORA58 / Fold change vs veh, SNORA58 / RFU, C1orf63 / Fold change vs veh, C1orf63 / RFU, LRRFIP1 / Fold change vs veh, LRRFIP1 / RFU, NDUFAF7 / Fold change vs veh, NDUFAF7 / RFU, SLC12A2 / Fold change vs veh, SLC12A2 / RFU, IBTK / Fold change vs veh, IBTK / RFU, ESF1 / Fold change vs veh, ESF1 / Fold change vs veh, TMEM50B / RFU, TAOK1 / Fold change vs veh, TAOK1 / RFU, ACBD3 / Fold change vs veh, ACBD3 / RFU, TMA16 / Fold change vs veh, TMA16 / RFU, RWDD3 / Fold change vs veh, RWDD3 / RFU, BCAT1 / Fold change vs veh, BCAT1 / RFU, EDEM3 / Fold change vs veh, EDEM3 / RFU, TMEM33 / Fold change vs veh, TMEM33 / RFU, WDR75 / Fold change vs veh, WDR75 / RFU, AHCTF1 / Fold change vs veh, AHCTF1 / RFU, TFRC / Fold change vs veh, TFRC / RFU, ZDHHC17 / Fold change vs veh, ZDHHC17 / RFU, NOM1 / Fold change vs veh, NOM1 / RFU, ARL8B / Fold change vs veh, ARL8B / RFU, ZBTB11 / Fold change vs veh, ZBTB11 / RFU, TAMM41 / Fold change vs veh, TAMM41 / RFU, KIAA1704 /// LOC100996395 / Fold change vs veh, KIAA1704 /// LOC100996395 / RFU, ING1 / Fold change vs veh, ING1 / RFU, TRMT61B / Fold change vs veh, TRMT61B / RFU, FUBP3 / Fold change vs veh, FUBP3 / RFU, TP53 / Fold change vs veh, TP53 / RFU, TNKS2 / Fold change vs veh, TNKS2 / RFU, ZFP14 / Fold change vs veh, ZFP14 / RFU, ACTR2 / Fold change vs veh, ACTR2 / RFU, PPP3R1 / Fold change vs veh, PPP3R1 / RFU, PIK3R1 / Fold change vs veh, PIK3R1 / RFU, HNRNPA1 / Fold change vs veh, HNRNPA1 / RFU, RNF170 / Fold change vs veh, RNF170 / RFU, ZNF28 / Fold change vs veh, ZNF28 / RFU, RNGTT / Fold change vs veh, RNGTT / RFU, OGT / Fold change vs veh, OGT / RFU, BRD1 / Fold change vs veh, BRD1 / RFU, MARS / Fold change vs veh, MARS / RFU, ZNF655 / Fold change vs veh, ZNF655 / RFU, FAHD1 / Fold change vs veh, FAHD1 / RFU, BDP1 / Fold change vs veh, BDP1 / RFU, LRRCC1 / Fold change vs veh, LRRCC1 / RFU, ARID1A / Fold change vs veh, ARID1A / RFU, ZNF146 / Fold change vs veh, ZNF146 / RFU, ZNF330 / Fold change vs veh, ZNF330 / RFU, GPN3 / Fold change vs veh, GPN3 / RFU, C9orf123 / Fold change vs veh, C9orf123 / RFU, N4BP2L2 / Fold change vs veh, N4BP2L2 / RFU, ARFIP1 / Fold change vs veh, ARFIP1 / RFU, FAM179B / Fold change vs veh, FAM179B / RFU, BCL10 / Fold change vs veh, BCL10 / RFU, UHRF1BP1L / Fold change vs veh, UHRF1BP1L / RFU, BET1 / Fold change vs veh, BET1 / RFU, CNOT2 / Fold change vs veh, CNOT2 / RFU, ZNF268 / Fold change vs veh, ZNF268 / Fold change vs veh, ZNF507 / RFU, DGCR2 / Fold change vs veh, DGCR2 / RFU, WDSUB1 / Fold change vs veh, WDSUB1 / Fold change vs veh, HSP90B1 /// MIR3652 / RFU, ADSS / Fold change vs veh, ADSS / RFU, GK / Fold change vs veh, GK / RFU, ZNF148 / Fold change vs veh, ZNF148 / RFU, TAF9 / Fold change vs veh, TAF9 / RFU, SLC1A5 / Fold change vs veh, SLC1A5 / RFU, SLMO2 / Fold change vs veh, SLMO2 / RFU, ABCC4 / Fold change vs veh, ABCC4 / RFU, LOC101060439 /// RAP1B / Fold change vs veh, LOC101060439 /// RAP1B / RFU, RFX7 / Fold change vs veh, RFX7 / RFU, GTPBP10 / Fold change vs veh, GTPBP10 / RFU, CNEP1R1 / Fold change vs veh, CNEP1R1 / RFU, BIVM-ERCC5 /// ERCC5 / Fold change vs veh, BIVM-ERCC5 /// ERCC5 / RFU, ILF3 / Fold change vs veh, ILF3 / RFU 11762660_at / Fold change /veh 11762660_at / RFU VCAN (11757783_s_at) / Fold change /veh VCAN (11757783_s_at) / RFU DDX43 (11728927_at) / Fold change /veh DDX43 (11728927_at) / RFU KRT8 (11758188_x_at) / Fold change /veh KRT8 (11758188_x_at) / RFU NKD1 (11759106_at) / Fold change /veh NKD1 (11759106_at) / RFU SRD5A1 (11742802_a_at) / Fold change /veh SRD5A1 (11742802_a_at) / RFU TPSAB1 /// TPSB2 (11721975_s_at) / Fold change /veh TPSAB1 /// TPSB2 (11721975_s_at) / RFU GSTM3 (11746129_a_at) / Fold change /veh GSTM3 (11746129_a_at) / RFU IL23R (11737362_x_at) / Fold change /veh IL23R (11737362_x_at) / RFU TMEM51 (11727254_a_at) / Fold change /veh TMEM51 (11727254_a_at) / RFU PIWIL2 (11732686_x_at) / Fold change /veh PIWIL2 (11732686_x_at) / RFU ORM1 (11744905_x_at) / Fold change /veh ORM1 (11744905_x_at) / RFU CCDC152 (11743942_at) / Fold change /veh CCDC152 (11743942_at) / RFU ECM1 (11717891_a_at) / Fold change /veh ECM1 (11717891_a_at) / RFU IL23R (11748794_a_at) / Fold change /veh IL23R (11748794_a_at) / RFU TNFAIP8L3 (11732012_x_at) / Fold change /veh TNFAIP8L3 (11732012_x_at) / RFU MBOAT4 (11741988_at) / Fold change /veh MBOAT4 (11741988_at) / RFU 11764193_at / Fold change /veh 11764193_at / RFU TMEM53 (11763286_at) / Fold change /veh TMEM53 (11763286_at) / RFU MAGEB2 (11727129_at) / Fold change /veh MAGEB2 (11727129_at) / RFU TMEM200A (11744735_a_at) / Fold change /veh TMEM200A (11744735_a_at) / RFU CCDC152 (11751479_a_at) / Fold change /veh CCDC152 (11751479_a_at) / RFU FAM211A (11726209_a_at) / Fold change /veh FAM211A (11726209_a_at) / RFU RGS16 (11746705_a_at) / Fold change /veh RGS16 (11746705_a_at) / RFU VCAN (11755009_s_at) / Fold change /veh VCAN (11755009_s_at) / RFU RHOB (11743442_s_at) / Fold change /veh RHOB (11743442_s_at) / RFU RGS16 (11720943_a_at) / Fold change /veh RGS16 (11720943_a_at) / RFU RGS16 (11720944_at) / Fold change /veh RGS16 (11720944_at) / RFU, VPS4B / Fold change vs veh, VPS4B / RFU, CREB1 / Fold change vs veh, CREB1 / RFU, DNAJC13 / Fold change vs veh, DNAJC13 / RFU, GNAQ / Fold change vs veh, GNAQ / RFU, CDK5R1 / Fold change vs veh, CDK5R1 / RFU, ZRANB3 / Fold change vs veh, ZRANB3 / RFU, CUL4A / Fold change vs veh, CUL4A / RFU, CCNY / Fold change vs veh, CCNY / RFU, UFL1 / Fold change vs veh, UFL1 / RFU, COG3 / Fold change vs veh, COG3 / RFU, DIAPH2 / Fold change vs veh, DIAPH2 / RFU, SKA2 / Fold change vs veh, SKA2 / RFU, AFF3 / Fold change vs veh, AFF3 / RFU, LMF1 / Fold change vs veh, LMF1 / RFU, IPO11 / Fold change vs veh, IPO11 / RFU, DFFB / Fold change vs veh, DFFB / RFU, FOXP1 / Fold change vs veh, FOXP1 / RFU, CARD8 / Fold change vs veh, CARD8 / RFU, STRN3 / Fold change vs veh, STRN3 / RFU, ADK / Fold change vs veh, ADK / RFU, RASSF2 / Fold change vs veh, RASSF2 / RFU, WIPF1 / Fold change vs veh, WIPF1 / RFU, LARP1B / Fold change vs veh, LARP1B / RFU, RASA1 / Fold change vs veh, RASA1 / RFU, RB1 / Fold change vs veh, RB1 / RFU, PPFIA1 / Fold change vs veh, PPFIA1 / RFU, MAT2A / Fold change vs veh, MAT2A / RFU, CCT5 / Fold change vs veh, CCT5 / RFU, WDR92 / Fold change vs veh, WDR92 / RFU, CUX1 / Fold change vs veh, CUX1 / RFU, TTC7A / Fold change vs veh, TTC7A / RFU, TMEM135 / Fold change vs veh, TMEM135 / RFU, DEPTOR / Fold change vs veh, DEPTOR / RFU, CPM / Fold change vs veh, CPM / RFU, DNAJB6 / Fold change vs veh, DNAJB6 / RFU, CACNA2D3 / Fold change vs veh, CACNA2D3 / RFU, DTX4 / Fold change vs veh, DTX4 / RFU, TFCP2 / Fold change vs veh, TFCP2 / RFU, GMCL1 /// GMCL1P1 / Fold change vs veh, GMCL1 /// GMCL1P1 / RFU, AEBP2 / Fold change vs veh, AEBP2 / RFU, SNHG1 /// SNORD22 /// SNORD25 /// SNORD26 /// SNORD27 /// SNORD28 /// SNORD29 /// SNORD31 / Fold change vs veh, SNHG1 /// SNORD22 /// SNORD25 /// SNORD26 /// SNORD27 /// SNORD28 /// SNORD29 /// SNORD31 / Fold change (Aza/veh), C12orf56 (ProbeSet 11735607_a_at) / Fold change (ACY-1035/veh), C12orf56 (ProbeSet 11735607_a_at) / Fold change (Aza/veh), FGFR1OP (ProbeSet 11751329_s_at) / Fold change (ACY-1035/veh), FGFR1OP (ProbeSet 11751329_s_at) / Fold change (Aza/veh), VPS36 (ProbeSet 11739960_a_at) / Fold change (ACY-1035/veh), VPS36 (ProbeSet 11739960_a_at) / RFU SYPL1 (11715823_x_at) / Fold change /veh SYPL1 (11715823_x_at) / RFU IGFBP7 (11715501_s_at) / Fold change /veh IGFBP7 (11715501_s_at) / RFU REEP3 (11722064_at) / Fold change /veh REEP3 (11722064_at) / RFU IGLL1 (11728026_x_at) / Fold change /veh IGLL1 (11728026_x_at): dose or concentration left out as unconfirmed
Conditions: ProbeSet 11727641_at; LIST B

Nc1ncn([C@@H]2O[C@H](CO)[C@@H](O)[C@H]2O)c(=O)n1 [azacitidine] was tested, and the “Fold change vs veh, NOM1” value was 1.06.
